Data from article PMC1533168 (Environmental Health Perspectives, 1998).
Several values for one entry are separate records, joined by “and”; a condition that tells them apart may be missing. Equal entries are not always repeated. Where two headings read alike, the source gives them in different places.

Assays:
[1] = Controlled chamber inhalation exposure: trichloroethene in venous blood; type: in vivo, human; details: for Blood model value at t = 0 (Blood, meas): elimination model; for Blood model value at t = 0 (Blood, meas) / Blood model value at t = 240: end of 100 ppmv 4 hr inhalation; for A coefficient (first), blood elimination model / Blood, 1st compartment half-life, elimination / A2 coefficient, blood elimination model: elimination period after 100 ppmv 4 hr inhalation; for Blood model value at t = 240: uptake model; for Blood, 1st compartment half-life, uptake / k1 time constant, blood uptake model: uptake period, 100 ppmv 4 hr inhalation; for k1 time constant, blood uptake model: time in minutes
[2] = type: in vivo, human; details: for Calc:meas ratio of peak blood level: elimination curves
[3] = type: in vivo, human; details: for A2 coefficient, breath elimination model / A1 coefficient, breath elimination model / Breath, 1st compartment half-life, elimination / Breath, 2nd compartment half-life, elimination / Breath, 3rd compartment half-life, elimination: elimination period after 100 ppmv 4 hr inhalation; for Breath model value at t = 0: elimination model; for Breath model value at t = 0 / Breath model value at t = 240: end of 100 ppmv 4 hr inhalation; for Breath model value at t = 240: uptake model; for Breath, 1st compartment half-life, uptake / k1 time constant, breath uptake model: uptake period, 100 ppmv 4 hr inhalation
[4] = cited from earlier work
[5] = all subjects, 100 ppmv 4 hr inhalation and 20 hr purified air
[6] = Subject 108, end of 100 ppmv 4 hr inhalation
[7] = Subject 109, end of 100 ppmv 4 hr inhalation
[8] = Subject 110, end of 100 ppmv 4 hr inhalation
[9] = Subject 208, end of 100 ppmv 4 hr inhalation
[10] = Subject 209, end of 100 ppmv 4 hr inhalation
[11] = Subject 210, end of 100 ppmv 4 hr inhalation
[12] = all individual data point pairs, all subjects
[13] = measured in vitro, ref Fiserova-Bergerova and Diaz (24)

ClC=C(Cl)Cl [trichloroethene]
Blood model value at t = 0 (Blood, meas) ([1]; Subject 108): 1,170.1 pg/I and 1,170 pg/I
A coefficient (first), blood elimination model ([1]; Subject 108): 820.7 micrograms per liter
Blood, 1st compartment half-life, elimination ([1]; Subject 108): 23.54 min
Blood model value at t = 240 ([1]; Subject 108): 1,317 pg/I
Blood, 1st compartment half-life, uptake ([1]; Subject 108): 26.60 min
k1 time constant, blood uptake model ([1]; Subject 108): 0.02606
Blood model value at t = 0 (Blood, meas) ([1]; Subject 109): 2,161.0 pg/I and 2,161 pg/I
A2 coefficient, blood elimination model ([1]; Subject 109): 287.0 micrograms per liter
A coefficient (first), blood elimination model ([1]; Subject 109): 1874 micrograms per liter
Blood, 1st compartment half-life, elimination ([1]; Subject 109): 17.93 min
Blood model value at t = 240 ([1]; Subject 109): 1,839 pg/I
Blood, 1st compartment half-life, uptake ([1]; Subject 109): 64.90 min
k1 time constant, blood uptake model ([1]; Subject 109): 0.01068
Blood model value at t = 0 (Blood, meas) ([1]; Subject 110): 1,481 pg/I and 1,480.9 pg/I
A2 coefficient, blood elimination model ([1]; Subject 110): 979.1 micrograms per liter
A coefficient (first), blood elimination model ([1]; Subject 110): 501.8 micrograms per liter
Blood, 1st compartment half-life, elimination ([1]; Subject 110): 6.86 min
Blood model value at t = 240 ([1]; Subject 110): 1,377 pg/I
Blood, 1st compartment half-life, uptake ([1]; Subject 110): 45.66 min
k1 time constant, blood uptake model ([1]; Subject 110): 0.01518
Blood model value at t = 0 (Blood, meas) ([1]; Subject 208): 1,284.6 pg/I and 1,285 pg/I
A2 coefficient, blood elimination model ([1]; Subject 208): 385.1 micrograms per liter
A coefficient (first), blood elimination model ([1]; Subject 208): 899.5 micrograms per liter
Blood, 1st compartment half-life, elimination ([1]; Subject 208): 12.49 min
Blood model value at t = 240 ([1]; Subject 208): 1,181 pg/I
Blood, 1st compartment half-life, uptake ([1]; Subject 208): 24.65 min
k1 time constant, blood uptake model ([1]; Subject 208): 0.02812
Blood model value at t = 0 (Blood, meas) ([1]; Subject 209): 1,641.0 pg/I and 1,641 pg/I
A2 coefficient, blood elimination model ([1]; Subject 209): 238.0 micrograms per liter
A coefficient (first), blood elimination model ([1]; Subject 209): 1403 micrograms per liter
Blood, 1st compartment half-life, elimination ([1]; Subject 209): 21.74 min
Blood model value at t = 240 ([1]; Subject 209): 1,608 pg/I
Blood, 1st compartment half-life, uptake ([1]; Subject 209): 47.12 min
k1 time constant, blood uptake model ([1]; Subject 209): 0.01471
Uptake curve model plateau coefficient, blood ([1]; Subject 210, Figure 1A): 1132 micrograms per liter
Blood model value at t = 0 (Blood, meas) ([1]; Subject 210): 1,183 pg/I and 1,182.9 pg/I
A2 coefficient, blood elimination model ([1]; Subject 210): 264.4 micrograms per liter and 264 micrograms per liter
A coefficient (first), blood elimination model ([1]; Subject 210): 918.5 micrograms per liter and 918 micrograms per liter
Blood, 1st compartment half-life, elimination ([1]; Subject 210): 15.39 min
Blood model value at t = 240 ([1]; Subject 210): 1,128 pg/I
Blood, 1st compartment half-life, uptake ([1]; Subject 210): 28.85 min
k1 time constant, blood uptake model ([1]; Subject 210): 0.02403
Relevant data range for blood samples [1, 5]: 100-1,600 pg/I
In vivo blood/breath partition coefficient, elimination-only data set ([2]; Mean ± SE of 6 subjects, end of 100 ppmv 4 hr inhalation): 9.69
Calc:meas ratio of peak blood level ([2]; Subject 108): 0.76
Blood:breath ratio at end of exposure, calculated from elimination models [2, 6]: 12.11
Blood:breath ratio at end of exposure, calculated from uptake models [2, 6]: 12.45
Calc:meas ratio of peak blood level ([2]; Subject 109): 0.75
Blood:breath ratio at end of exposure, calculated from elimination models [2, 7]: 12.31
Blood:breath ratio at end of exposure, calculated from uptake models [2, 7]: 14.12
Calc:meas ratio of peak blood level ([2]; Subject 110): 1.01
Blood:breath ratio at end of exposure, calculated from elimination models [2, 8]: 9.11
Blood:breath ratio at end of exposure, calculated from uptake models [2, 8]: 11.96
Calc:meas ratio of peak blood level ([2]; Subject 208): 0.93
Blood:breath ratio at end of exposure, calculated from elimination models [2, 9]: 9.89
Blood:breath ratio at end of exposure, calculated from uptake models [2, 9]: 11.97
Calc:meas ratio of peak blood level ([2]; Subject 209): 0.90
Blood:breath ratio at end of exposure, calculated from elimination models [2, 10]: 10.18
Blood:breath ratio at end of exposure, calculated from uptake models [2, 10]: 10.94
Calc:meas ratio of peak blood level ([2]; Subject 210): 1.51
Blood:breath ratio at end of exposure, calculated from elimination models [2, 11]: 6.07
Blood:breath ratio at end of exposure, calculated from uptake models [2, 11]: 9.99
Blood/breath regression slope (mean blood/breath ratio), elimination phase [2, 12]: 29.00
Blood/breath regression slope (mean blood/breath ratio), uptake phase [2, 12]: 10.93
Inspired trichloroethene excreted through exhalation ([2]; at equilibrium): about 22%
Share of the expired trichloroethene coming from the blood (first) compartment ([2]; elimination phase after 4-hr exposure): about 75%
In vivo blood/breath partition coefficient, overall mean ([2]; experiment time = 0, all subjects, uptake and elimination experiments): 10.8
Mean time constant for breath relative to its blood counterpart (times as large) ([2]; initial 10 min of elimination, first compartment dominant): 10
Time constant for breath relative to that for blood (times as large) ([2]; uptake portion of the experiment): about 2.5
A2 coefficient, breath elimination model ([3]; Mean ± SE of 6 subjects): 28.67 6.26 micrograms per liter
Breath model value at t = 0 ([3]; Subject 108): 96.6 pg/I
A1 coefficient, breath elimination model ([3]; Subject 108): 76.7 micrograms per liter
A2 coefficient, breath elimination model ([3]; Subject 108): 15.21 micrograms per liter
Breath, 1st compartment half-life, elimination ([3]; Subject 108): 4.40 min
Breath, 2nd compartment half-life, elimination ([3]; Subject 108): 54.15 min
Breath, 3rd compartment half-life, elimination ([3]; Subject 108): 424.98 min
Breath model value at t = 240 ([3]; Subject 108): 105.8 pg/I
Breath, 1st compartment half-life, uptake ([3]; Subject 108): 9.90 min
k1 time constant, breath uptake model ([3]; Subject 108, time in minutes): 0.07004
Breath model value at t = 0 ([3]; Subject 109): 175.5 pg/I
A1 coefficient, breath elimination model ([3]; Subject 109): 115.8 micrograms per liter
A2 coefficient, breath elimination model ([3]; Subject 109): 53.76 micrograms per liter
Breath, 1st compartment half-life, elimination ([3]; Subject 109): 1.15 min
Breath, 2nd compartment half-life, elimination ([3]; Subject 109): 27.16 min
Breath, 3rd compartment half-life, elimination ([3]; Subject 109): 541.52 min
Breath model value at t = 240 ([3]; Subject 109): 130.3 pg/I
Breath, 1st compartment half-life, uptake ([3]; Subject 109): 9.59 min
k1 time constant, breath uptake model ([3]; Subject 109, time in minutes): 0.07229
Breath model value at t = 0 ([3]; Subject 110): 162.5 pg/I
A1 coefficient, breath elimination model ([3]; Subject 110): 146.2 micrograms per liter
A2 coefficient, breath elimination model ([3]; Subject 110): 13.41 micrograms per liter
Breath, 1st compartment half-life, elimination ([3]; Subject 110): 4.07 min
Breath, 2nd compartment half-life, elimination ([3]; Subject 110): 88.18 min
Breath, 3rd compartment half-life, elimination ([3]; Subject 110): 1,269.50 min
Breath model value at t = 240 ([3]; Subject 110): 115.2 pg/I
Breath, 1st compartment half-life, uptake ([3]; Subject 110): 39.05 min
k1 time constant, breath uptake model ([3]; Subject 110, time in minutes): 0.01775
Breath model value at t = 0 ([3]; Subject 208): 129.9 pg/I
A1 coefficient, breath elimination model ([3]; Subject 208): 104.4 micrograms per liter
A2 coefficient, breath elimination model ([3]; Subject 208): 21.21 micrograms per liter
Breath, 1st compartment half-life, elimination ([3]; Subject 208): 0.97 min
Breath, 2nd compartment half-life, elimination ([3]; Subject 208): 29.98 min
Breath, 3rd compartment half-life, elimination ([3]; Subject 208): 396.31 min
Breath model value at t = 240 ([3]; Subject 208): 98.6 pg/I
Breath, 1st compartment half-life, uptake ([3]; Subject 208): 9.92 min
Breath model value at t = 0 ([3]; Subject 209): 161.2 pg/I
A1 coefficient, breath elimination model ([3]; Subject 209): 114.1 micrograms per liter
A2 coefficient, breath elimination model ([3]; Subject 209): 36.96 micrograms per liter
Breath, 1st compartment half-life, elimination ([3]; Subject 209): 2.68 min
Breath, 2nd compartment half-life, elimination ([3]; Subject 209): 21.44 min
Breath, 3rd compartment half-life, elimination ([3]; Subject 209): 262.26 min
Breath model value at t = 240 ([3]; Subject 209): 147.0 pg/I
Breath, 1st compartment half-life, uptake ([3]; Subject 209): 21.42 min
k1 time constant, breath uptake model ([3]; Subject 209, time in minutes): 0.03236
Uptake curve model plateau coefficient, breath ([3]; Subject 210, Figure 1B): 113 micrograms per liter
k3 time constant, breath elimination model ([3]; Subject 210, Figure 1D, time in minutes): .00061
Breath model value at t = 0 ([3]; Subject 210): 194.7 pg/I
A1 coefficient, breath elimination model ([3]; Subject 210): 156.8 micrograms per liter and 157 micrograms per liter
A2 coefficient, breath elimination model ([3]; Subject 210): 31.47 micrograms per liter and 31.5 micrograms per liter
Breath, 1st compartment half-life, elimination ([3]; Subject 210): 1.03 min
Breath, 2nd compartment half-life, elimination ([3]; Subject 210): 40.30 min
Breath, 3rd compartment half-life, elimination ([3]; Subject 210): 1,145.89 min
Breath model value at t = 240 ([3]; Subject 210): 113.0 pg/I
Breath, 1st compartment half-life, uptake ([3]; Subject 210): 18.94 min
k1 time constant, breath uptake model ([3]; Subject 210, time in minutes): 0.0366
Relevant data range for breath samples [3, 5]: <1-150 pg/I
Blood/air partition coefficient [4, 13]: 8.1
Partition coefficient for lung tissue [4, 13]: 14.0
Blood/air partition coefficient ([4]; measured in vitro, ref Gargas et al. (22)): 8.11
Blood/air partition coefficient ([4]; measured in vitro, ref Lindqvist (23)): 15.7
Blood/breath partition coefficient, accepted literature value ([4]; used in human pharmacokinetic model, ref Allen and Fisher (26)): 9.2
Pulmonary partition coefficient ([4]; value used, ref Fernandez et al. (25)): 9
